Assay results reported in US20140296216A1, “PYRIMIDO[4,5-D]PYRIMIDINYL COMPOUNDS, PHARMACEUTICAL COMPOSITIONS AND USES THEREOF” (GUANGZHOU INSTITUTE OF BIOMEDICINE AND HEALTH, CHINESE …, priority 2011, published 2014).

What was measured:
H1975 cell [1] = assay: Effect on cell cycle by PI; format: cell-based; conditions: PI staining, 24, 48 h; FIGS. 27, 28
Method: Detecting the effect of the compounds on cell cycle by PI: 8×10^5 cells/well, NCI-H820, A431, HCC827, EGFR E746-A750 deletion, H1975 were plated in 6-well plates, and 24 h later, treated with the compounds at various concentrations and a control (1% DMSO) for 24, 48 h. Cells were trypsined, collected and then centrifuged for 10 minutes. The cells were re-suspended in PBS to get a suspension and then the suspension (500 g) centrifuged for 10 min; this step was repeated twice: firstly 300 uL pre-cooled PBS was added and mixed, then 700 uL pre-cooled (i.e. −20° C.) anhydrous ethanol was added and mixed, placed in −20° C. for 24 h. The mixture was 5000 rpm centrifuged for 2 min, washed by PBS twice, resuspended with 200 uL PBS (it needs to ensure the cell concentration as about […]), added RNase to achieve the final concentration of 50 ug/mL, and […] at 37° C. for 30 min. The mixture was added PI achieve the final concentration of 10 ug/mL, dyed in dark for 30 min, and then detected within 1 h.

[2] = system: EGFR phosphorylation in H1975 Cell; assay: Western Blot, cell signaling pathway in H1975 cell; format: cell-based; conditions: FIG. 30
Method: Conventional Western Blot (Immune blotting method) was used, wherein the method includes four steps: sample preparation, electrophoretic separation, film transfer of protein, and immuno hybridization and color display (protein detection). Sample preparation • 1. culturing cells or treating the cells with drugs; • 2. discarding mediums, washing the cells with 1×PBS twice to completely remove the mediums; • 3. adding 1×SDS sample buffer (6-well plate, 100 μl/w or 75 cm^2 plate, 500-1000 μl/bottle), scrapping the cells and transferring them to Ep tube; • 4. ultrasonic shearing DNA for 10-15 seconds to reduce the viscosity of the sample; • 5. boiling the sample for 5 minutes; • 6. centrifuging 12000 g sample for 5 minutes and taking the supernatant. […]

EGFRL861Q = EGFRL861Q (Homo sapiens, UniProt P00533, L861Q); assay: In vitro enzymatic activity assay (Z'-LYTE), EGFR L861Q; format: biochemical; conditions: Z'-LYTE FRET peptide assay; read-out: EGFRL861Q kinase activity (IC50)
Procedure, shortened: (§1)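 Z'-LYTE FRET coupled-enzyme format: kinase phosphorylates FRET peptide substrate, then after one hour a site-specific protease cleaves non-phosphorylated peptide. After another hour, excitation at 400 nm and emission read at 445 and 520 nm.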

[3] = system: HCC827 (lung cancer cells, EGFR E746-A750 deletion); assay: Cell proliferation by MTT, HCC827; format: cell-based; conditions: Homo sapiens, HCC827, read-out: HCC827 50% inhibitory concentration (IC50), 72 h
[4] = system: A431 (Human epidermal carcinoma, EGFR high expression); assay: Cell proliferation by MTT, A431; format: cell-based; conditions: A-431, read-out: A431 50% inhibitory concentration (IC50), 72 h
H1975 cell [5] = assay: Effect on cell apoptosis by Annexin V; format: cell-based; conditions: PE-Annexin V, 24, 48 h; FIG. 29
Method: Detecting the effect of the compounds on cell apoptosis by Annexin V: 8×10^5 cells/well, NCI-H820, A431, HCC827, EGFR E746-A750 deletion, H1975 were plated in 6-well plates, and 24 h later, treated with the compounds at various concentrations and a control (1% DMSO) for 24, 48 h. Growth medium was collected and cells were trypsined and collected correspondingly to the medium. Suspension (500 g) was centrifuged for 10 minutes. The cells were re-suspended in PBS to get a suspension and then the suspension (500 g) centrifuged for 10 min; this step was repeated twice. The cells were re-suspended in binding buffer, 5×10^5-1×10^6 cells/mL. PE-Annexin V (556421, BD Pharmingen) […] respectively. The cells were incubated for 15 min at RT in the dark. The samples were detected with FACS Calibur flow cytometer (Becton Dickinson).

[6] = system: NCI-H820 (lung cancer cells); assay: Cell proliferation by MTT, NCI-H820; format: cell-based; conditions: NCI-H820, read-out: NCI-H820 50% inhibitory concentration (IC50), 72 h
EGFR T790M kinase = biological target: T1, EGFR T790M kinase (Homo sapiens, UniProt P00533, T790M); assay: In vitro enzymatic activity assay (Z'-LYTE), EGFR T790M; format: biochemical; conditions: Z'-LYTE FRET peptide assay; read-out: EGFRT790M kinase activity (IC50)
T1 construct: purchased invitrogen PV4803
Procedure, shortened: as §1

EGFRL858R = EGFRL858R (Homo sapiens, UniProt P00533, L858R); assay: In vitro enzymatic activity assay (Z'-LYTE), EGFR L858R; format: biochemical; conditions: Z'-LYTE FRET peptide assay; read-out: EGFRL858R kinase activity (IC50)
Procedure, shortened: as §1

[7] = system: H1975 (lung cancer cells, EGFR L858R&T790M); assay: Cell proliferation by MTT, H1975; format: cell-based; conditions: Homo sapiens, NCI-H1975, read-out: H1975 50% inhibitory concentration (IC50), 72 h
EGFRWT = EGFRWT (Homo sapiens, UniProt P00533); assay: In vitro enzymatic activity assay (Z'-LYTE), wild type EGFR; format: biochemical; conditions: Z'-LYTE FRET peptide assay; read-out: EGFRWT kinase activity (IC50)
Procedure, shortened: as §1

EGFRL858R + T790M = EGFRL858R + T790M (Homo sapiens, UniProt P00533, L858R/T790M); assay: In vitro enzymatic activity assay (Z'-LYTE), EGFR L858R + T790M; format: biochemical; conditions: Z'-LYTE FRET peptide assay; read-out: EGFRL858R + T790M kinase activity (IC50)
Procedure, shortened: as §1

EGFRL858R, sequence (P00533 25-1210 L858R): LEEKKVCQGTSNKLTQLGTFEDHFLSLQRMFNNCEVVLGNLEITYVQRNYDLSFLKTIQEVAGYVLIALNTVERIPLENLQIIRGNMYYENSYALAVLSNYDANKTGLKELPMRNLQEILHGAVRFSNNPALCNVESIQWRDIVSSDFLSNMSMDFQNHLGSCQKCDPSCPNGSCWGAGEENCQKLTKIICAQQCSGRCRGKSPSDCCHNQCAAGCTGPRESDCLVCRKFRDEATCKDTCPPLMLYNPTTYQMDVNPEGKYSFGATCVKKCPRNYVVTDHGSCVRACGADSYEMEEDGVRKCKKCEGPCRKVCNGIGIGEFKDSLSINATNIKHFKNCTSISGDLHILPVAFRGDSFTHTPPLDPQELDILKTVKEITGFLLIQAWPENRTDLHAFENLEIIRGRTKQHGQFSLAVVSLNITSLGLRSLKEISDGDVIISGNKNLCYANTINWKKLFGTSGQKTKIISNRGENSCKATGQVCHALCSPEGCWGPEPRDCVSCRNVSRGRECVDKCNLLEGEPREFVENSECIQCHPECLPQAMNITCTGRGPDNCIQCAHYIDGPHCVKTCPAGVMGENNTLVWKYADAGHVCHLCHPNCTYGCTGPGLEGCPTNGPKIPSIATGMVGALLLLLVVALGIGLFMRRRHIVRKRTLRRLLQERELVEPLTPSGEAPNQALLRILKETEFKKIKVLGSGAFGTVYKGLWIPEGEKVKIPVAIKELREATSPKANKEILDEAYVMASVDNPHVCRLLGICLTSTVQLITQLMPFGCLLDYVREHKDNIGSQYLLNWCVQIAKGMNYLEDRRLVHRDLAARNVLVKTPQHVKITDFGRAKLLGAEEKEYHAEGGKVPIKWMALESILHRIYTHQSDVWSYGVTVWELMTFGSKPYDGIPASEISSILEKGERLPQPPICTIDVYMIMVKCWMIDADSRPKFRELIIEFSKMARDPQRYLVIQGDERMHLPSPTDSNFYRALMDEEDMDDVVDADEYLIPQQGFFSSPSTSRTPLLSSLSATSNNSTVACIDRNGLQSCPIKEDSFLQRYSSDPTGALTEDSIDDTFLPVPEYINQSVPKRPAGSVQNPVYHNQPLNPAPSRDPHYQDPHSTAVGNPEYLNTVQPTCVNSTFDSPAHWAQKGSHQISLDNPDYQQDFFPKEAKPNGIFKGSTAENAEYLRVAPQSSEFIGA
EGFRL858R + T790M, sequence (P00533 25-1210 T790M/L858R): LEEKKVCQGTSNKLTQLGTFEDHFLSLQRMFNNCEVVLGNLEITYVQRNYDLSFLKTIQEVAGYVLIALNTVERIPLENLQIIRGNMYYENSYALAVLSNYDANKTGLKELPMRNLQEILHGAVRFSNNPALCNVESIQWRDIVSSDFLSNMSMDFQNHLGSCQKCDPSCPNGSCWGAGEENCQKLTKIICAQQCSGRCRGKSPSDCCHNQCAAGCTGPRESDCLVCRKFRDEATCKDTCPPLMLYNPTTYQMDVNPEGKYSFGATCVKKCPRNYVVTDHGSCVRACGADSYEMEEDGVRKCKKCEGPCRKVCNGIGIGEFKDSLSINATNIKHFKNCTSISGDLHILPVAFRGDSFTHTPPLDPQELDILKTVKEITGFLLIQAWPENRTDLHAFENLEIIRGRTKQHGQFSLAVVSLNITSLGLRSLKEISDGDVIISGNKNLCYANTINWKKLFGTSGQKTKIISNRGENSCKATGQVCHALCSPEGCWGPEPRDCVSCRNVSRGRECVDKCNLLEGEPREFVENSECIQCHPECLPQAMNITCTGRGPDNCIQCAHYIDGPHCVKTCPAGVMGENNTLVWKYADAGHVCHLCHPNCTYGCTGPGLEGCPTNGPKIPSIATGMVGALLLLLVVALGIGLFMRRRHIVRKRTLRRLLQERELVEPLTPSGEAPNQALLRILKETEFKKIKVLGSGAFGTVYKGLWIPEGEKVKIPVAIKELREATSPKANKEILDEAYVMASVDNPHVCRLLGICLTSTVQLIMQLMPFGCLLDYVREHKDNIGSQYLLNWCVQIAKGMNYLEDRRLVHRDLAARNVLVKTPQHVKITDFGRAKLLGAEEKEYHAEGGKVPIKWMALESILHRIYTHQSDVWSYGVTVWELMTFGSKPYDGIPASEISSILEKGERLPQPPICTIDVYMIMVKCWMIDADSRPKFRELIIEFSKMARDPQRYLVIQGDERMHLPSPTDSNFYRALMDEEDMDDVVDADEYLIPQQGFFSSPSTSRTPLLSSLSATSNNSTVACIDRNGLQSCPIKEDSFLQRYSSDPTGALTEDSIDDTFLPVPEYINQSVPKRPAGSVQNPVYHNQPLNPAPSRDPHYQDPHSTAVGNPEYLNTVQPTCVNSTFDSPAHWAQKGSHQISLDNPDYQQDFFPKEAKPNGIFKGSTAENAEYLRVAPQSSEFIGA
EGFRWT, sequence (P00533 25-1210): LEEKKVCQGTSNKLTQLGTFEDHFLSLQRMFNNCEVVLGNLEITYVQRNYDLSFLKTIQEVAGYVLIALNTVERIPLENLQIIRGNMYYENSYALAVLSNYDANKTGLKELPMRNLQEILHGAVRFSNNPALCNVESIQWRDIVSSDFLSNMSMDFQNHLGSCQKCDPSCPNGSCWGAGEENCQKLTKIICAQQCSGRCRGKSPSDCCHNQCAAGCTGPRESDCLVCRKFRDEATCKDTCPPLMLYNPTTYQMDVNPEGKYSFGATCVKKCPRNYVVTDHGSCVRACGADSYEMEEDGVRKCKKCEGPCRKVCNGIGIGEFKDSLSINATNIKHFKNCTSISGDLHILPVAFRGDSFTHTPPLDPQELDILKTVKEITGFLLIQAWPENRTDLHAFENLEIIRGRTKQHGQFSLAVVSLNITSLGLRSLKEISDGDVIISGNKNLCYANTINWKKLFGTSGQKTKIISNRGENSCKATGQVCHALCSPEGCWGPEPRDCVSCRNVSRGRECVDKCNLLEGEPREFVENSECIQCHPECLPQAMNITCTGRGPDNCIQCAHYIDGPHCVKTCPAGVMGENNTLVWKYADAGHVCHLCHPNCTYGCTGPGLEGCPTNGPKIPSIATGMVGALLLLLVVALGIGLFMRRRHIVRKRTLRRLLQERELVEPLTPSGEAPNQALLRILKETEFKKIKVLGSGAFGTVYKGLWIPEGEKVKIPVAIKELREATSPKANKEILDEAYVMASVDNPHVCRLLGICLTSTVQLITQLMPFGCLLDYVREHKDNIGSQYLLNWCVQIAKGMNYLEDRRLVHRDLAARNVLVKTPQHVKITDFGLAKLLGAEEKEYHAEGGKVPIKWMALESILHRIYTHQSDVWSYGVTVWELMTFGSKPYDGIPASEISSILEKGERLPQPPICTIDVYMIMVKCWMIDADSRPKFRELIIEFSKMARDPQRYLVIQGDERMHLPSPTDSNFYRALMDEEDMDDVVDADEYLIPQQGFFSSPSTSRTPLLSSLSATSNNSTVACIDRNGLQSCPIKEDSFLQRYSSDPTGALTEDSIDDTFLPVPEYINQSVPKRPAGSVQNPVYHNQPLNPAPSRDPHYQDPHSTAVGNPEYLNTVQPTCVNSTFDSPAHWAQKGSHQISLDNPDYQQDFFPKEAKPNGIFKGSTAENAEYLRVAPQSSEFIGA
T1 sequence (P00533 25-1210 T790M): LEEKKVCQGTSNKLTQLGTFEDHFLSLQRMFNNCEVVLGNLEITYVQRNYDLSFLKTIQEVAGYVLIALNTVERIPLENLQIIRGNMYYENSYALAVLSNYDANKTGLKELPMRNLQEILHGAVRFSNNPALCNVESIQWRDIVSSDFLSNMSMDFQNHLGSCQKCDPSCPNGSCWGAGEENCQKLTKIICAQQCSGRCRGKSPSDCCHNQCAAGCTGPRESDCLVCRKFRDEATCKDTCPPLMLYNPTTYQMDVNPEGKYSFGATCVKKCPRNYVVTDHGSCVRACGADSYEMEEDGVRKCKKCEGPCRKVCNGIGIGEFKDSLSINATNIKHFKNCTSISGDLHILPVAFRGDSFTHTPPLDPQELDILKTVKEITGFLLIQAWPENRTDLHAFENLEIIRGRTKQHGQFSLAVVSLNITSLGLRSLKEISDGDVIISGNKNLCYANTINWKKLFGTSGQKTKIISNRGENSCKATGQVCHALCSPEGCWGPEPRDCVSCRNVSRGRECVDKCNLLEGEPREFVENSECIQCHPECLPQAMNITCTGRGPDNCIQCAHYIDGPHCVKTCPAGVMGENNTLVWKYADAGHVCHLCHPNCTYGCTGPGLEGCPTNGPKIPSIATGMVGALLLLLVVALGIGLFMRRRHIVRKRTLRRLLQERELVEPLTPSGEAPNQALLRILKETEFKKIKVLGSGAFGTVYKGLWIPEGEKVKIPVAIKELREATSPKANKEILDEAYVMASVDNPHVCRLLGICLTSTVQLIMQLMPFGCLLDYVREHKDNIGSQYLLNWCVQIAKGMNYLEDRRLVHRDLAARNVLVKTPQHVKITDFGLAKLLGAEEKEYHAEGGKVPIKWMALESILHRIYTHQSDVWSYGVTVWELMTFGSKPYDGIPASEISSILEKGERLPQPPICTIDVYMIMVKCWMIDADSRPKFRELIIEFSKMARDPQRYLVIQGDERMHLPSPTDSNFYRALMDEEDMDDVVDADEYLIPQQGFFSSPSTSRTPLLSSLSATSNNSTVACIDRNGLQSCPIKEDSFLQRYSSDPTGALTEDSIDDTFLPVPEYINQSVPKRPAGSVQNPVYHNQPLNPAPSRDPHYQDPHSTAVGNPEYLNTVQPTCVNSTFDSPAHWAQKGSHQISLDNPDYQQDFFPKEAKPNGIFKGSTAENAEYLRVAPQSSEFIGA

C=CC(=O)Nc1cccc(N2C(=O)N(C)Cc3cnc(Nc4ccc(N5CCN(C)CC5)cc4OC)nc32)c1 [C-EGF06, N-(3-(7-(2-methoxy-4-(4-methylpiperazin-1-yl)phenylamino)-3-methyl-2-oxo-3,4-dihydropyrimido[4,5-d]pyrimidin-1(2H)-yl)phenyl)acrylamide]
cell cycle arrest (H1975 cell [1]): significantly induce
EGFR phosphorylation arrest [2]: significantly induce EGFR phosphorylation arrest
downstream pathway phosphorylation [2]: further block
IC50 (EGFRL861Q): ≤ 10 nM
IC50 [3]: 52 nM
IC50 [4]: 2930 nM
cell apoptosis (H1975 cell [5]): significantly induce
IC50 [6]: > 100000 nM
IC50 (EGFR T790M kinase): ≤ 10 nM
IC50 (EGFRL858R): ≤ 10 nM
IC50 [7]: 85 nM
IC50 (EGFRWT): ≤ 10 nM
IC50 (EGFRL858R + T790M): ≤ 10 nM
